# Measured values from patent publication US20110053773A1, “METHODS OF IMPROVING NUTRITIONAL VALUE OF PLANTS” (UNIVERSITY OF TENNESSEE RESEARCH FOUNDATION, priority 2009, published 2011).
# Legend:
# Assay type in all cases: in vivo
# [1] = system: sweet corn (Zea mays var. rugosa) cultivar 'Incredible'; assay: Content analysis of sweet corn ears: crude protein, amino acids, detergent fiber, fatty acids, minerals (Example 1); settings: POST at b59 rates; every treatment incl. check also got atrazine 560 g ai/ha + COC 1% v/v; relative to treated check (atrazine), check=0
# Source text: Herbicide treatments were applied in a water carrier at 23 gallons of solution per acre on a field site near Knoxville, Tenn. and Painter, Va. Treatments include the following: 1) nicosulfuron at 35 g ai/ha (Accent); 2) mesotrione at 105 g ai/ha (Callisto); 3) nicosulfuron at 35 g ai/ha+mesotrione at 105 g ai/ha (Callisto+Accent); 4) tembotrione at 92 g ai/ha+isoxadifen-ethyl at 46 g ai/ha (Laudis); 5) topramezone at 15 g ai/ha (Impact); 6) nicosulfuron at 35 g ai/ha+isoxadifen-ethyl at 9 g ai/ha (Accent Q); 7) nicosulfuron at 35 g ai/ha+isoxadifen-ethyl at 9 g ai/ha+topramezone at 15 g ai/ha (Accent Q+Impact); 8) nicosulfuron 35 g ai/ha+isoxadifen-ethyl at 9 g ai/ha+mesotrione at 105 g ai/ha (Accent Q+Callisto); 9) treated check (atrazine or Aatrex). All treatments included a PRE application of atrazine plus metolachlor in order to maintain weed free conditions. In addition, all POST treatments (including the treated check) included atrazine at 560 g ai/ha and crop oil concentrate at 1% v/v. […] Sweet corn was harvested from the center two rows of each four row plot and weighed in the husk.
# [2] = system: sweet corn cultivars 'Merit', 'Temptation', 'Incredible'; assay: Kernel carotenoids of sweet corn after mesotrione and atrazine (Example 3); design: Kernel carotenoids: Lutein / Kernel carotenoids: Zeaxanthin: unit not given here; settings: mesotrione 105, atrazine 560 g ai/ha
# Experimental: (§1) Studies were conducted in a field in Knoxville, Tenn. to ascertain the growth, stress tolerance and nutritional quality differences following postemergence applications of herbicides mesotrione and atrazine, alone and in mixtures together, on the young sweet corn cultivars: ‘Merit’ (yellow-kernel sensitive genotype), ‘Temptation’ (bicolor tolerant genotype), and ‘Incredible’ (yellow-kernel moderately sensitive genotype).
# (§2) Herbicide treatments were applied as follows: 1) untreated control; 2) mesotrione (meso) at 105 g ai/ha EPOST; 3) mesotrione at 105+atrazine at 560 g ai/ha EPOST; 4) atrazine at 560 g ai/ha EPOST; 5) mesotrione at 105 g ai/ha LPOST; 6) mesotrione at 105+atrazine at 560 g ai/ha LPOST; and 7) atrazine at 560 g ai/ha LPOST. Visual ratings of plant growth were taken during season, and kernels for carotenoids were measured at harvest.
# [3] = system: sweet corn cultivars 'Merit', 'Temptation', 'Incredible'; assay: Visual leaf tissue bleaching of sweet corn (Example 3, Table 9); settings: mesotrione 105, atrazine 560 g ai/ha
# Experimental: as §1, §2
# [4] = 'Incredible' moderately sensitive genotype, EPOST
# [5] = 'Incredible' moderately sensitive genotype, LPOST
# [6] = 'Merit' sensitive genotype, EPOST
# [7] = 'Merit' sensitive genotype, LPOST
smiles,measurement,setting,value
"CCNc1nc(Cl)nc(NC(C)C)n1 [Atrazine*AATREX, atrazine]",Acid DF,[1],0 % of check
same,Alanine,[1],0 % of check
same,Amino Acid,[1],0 % of check
same,Aspartic ac,[1],0 % of check
same,Cysteine,[1],0 % of check
same,Glutamic ac,[1],0 % of check
same,Glycine,[1],0 % of check
same,Isoleucine,[1],0 % of check
same,Leucine,[1],0 % of check
same,Lysine,[1],0 % of check
same,Methionine,[1],0 % of check
same,Neutral DF,[1],0 % of check
same,Proline,[1],0 % of check
same,Protein,[1],0 % of check
same,Threonine,[1],0 % of check
same,Valine,[1],0 % of check
same,calcium,[1],0 % of check
same,copper,[1],0 % of check
same,iron,[1],0 % of check
same,magnesium,[1],0 % of check
same,manganese,[1],0 % of check
same,mon fattyac,[1],0 % of check
same,phosphorous,[1],0 % of check
same,polyfattyac,[1],0 % of check
same,potassium,[1],0 % of check
same,sat fattyac,[1],0 % of check
same,sodium,[1],0 % of check
same,tot fattyac,[1],0 % of check
same,zinc,[1],0 % of check
same,Lutein % change from untreated control,[2]; [4],+7.6%
same,Zeaxanthin % change from untreated control,[2]; [4],−0.0%
same,Kernel carotenoids: Lutein,"[2]; 'Incredible' moderately sensitive genotype, EPOST, untreated 0.328",0.353
same,Kernel carotenoids: Zeaxanthin,"[2]; 'Incredible' moderately sensitive genotype, EPOST, untreated 0.448",0.447
same,Lutein % change from untreated control,[2]; [5],+6.0%
same,Zeaxanthin % change from untreated control,[2]; [5],+1.3%
same,Kernel carotenoids: Lutein,"[2]; 'Incredible' moderately sensitive genotype, LPOST, untreated 0.328",0.347
same,Kernel carotenoids: Zeaxanthin,"[2]; 'Incredible' moderately sensitive genotype, LPOST, untreated 0.448",0.454
same,Kernel carotenoids: Lutein,[2]; [6],0.692
same,Lutein % change from untreated control,[2]; [6],+9.5%
same,Zeaxanthin % change from untreated control,[2]; [6],+10.8%
same,Kernel carotenoids: Zeaxanthin,"[2]; 'Merit' sensitive genotype, EPOST, untreated 0.509",0.564
same,Kernel carotenoids: Lutein,[2]; [7],0.664
same,Lutein % change from untreated control,[2]; [7],+5.1%
same,Zeaxanthin % change from untreated control,[2]; [7],+8.1%
same,Kernel carotenoids: Zeaxanthin,"[2]; 'Merit' sensitive genotype, LPOST, untreated 0.509",0.550
same,Leaf Tissue Visual Bleaching (%),"[3]; ‘Incredible’, 7 DAT, EPOST",13%
same,Leaf Tissue Visual Bleaching (%),"[3]; ‘Incredible’, 7 DAT, LPOST",0%
same,Leaf Tissue Visual Bleaching (%),"[3]; ‘Incredible’, 14 DAT, EPOST",13%
same,Leaf Tissue Visual Bleaching (%),"[3]; ‘Incredible’, 14 DAT, LPOST",0%
same,Leaf Tissue Visual Bleaching (%),"[3]; ‘Incredible’, 21 DAT, EPOST",0%
same,Leaf Tissue Visual Bleaching (%),"[3]; ‘Incredible’, 21 DAT, LPOST",0%
same,Leaf Tissue Visual Bleaching (%),"[3]; ‘Merit’, 7 DAT, EPOST",3%
same,Leaf Tissue Visual Bleaching (%),"[3]; ‘Merit’, 7 DAT, LPOST",0%
same,Leaf Tissue Visual Bleaching (%),"[3]; ‘Merit’, 14 DAT, EPOST",2%
same,Leaf Tissue Visual Bleaching (%),"[3]; ‘Merit’, 14 DAT, LPOST",0%
same,Leaf Tissue Visual Bleaching (%),"[3]; ‘Merit’, 21 DAT, EPOST",0%
same,Leaf Tissue Visual Bleaching (%),"[3]; ‘Merit’, 21 DAT, LPOST",0%
